Results taken from US11458205B2, “Genetically encoded intrinsically disordered stealth polymers for delivery and methods of using same” (Duke University, priority 2015, dated 2022).

System: MDA-MB-231 human triple negative breast cancer cells
Test: In vitro cytotoxicity (MTS) of ZiPP-PTX conjugates
Format: cell-based
Settings: MDA-MB-231, 72 hours of drug treatment, concentration in terms of the drug, read-out: IC50 (concentration of the drug that reduced cell viability by 50%)
Procedure: In vitro cytotoxicity of ZiPP-PTX conjugates. In vitro cytotoxicity was done on MDA-MB-231 human triple negative breast cancer cells. 3×10^3 cells were seeded per 100 μL of media in Falcon™ 96-well cell culture plates (BD; Franklin Lakes, N.J.). The cells were allowed to adhere for 16-18 hours before being treated with free PTX and ZiPP-PTX at concentrations that ranged from sub-nanomolar to high-micromolar range. After 72 hours of drug treatment, 20 μL of […] (MTS) reagent (CellTiter 96 AQueous™ Promega; Madison, Wis.) was added to each well and incubated for an additional 2 hours. A dose-response curve for free drug and ZiPP-drug conjugate was constructed by measuring the absorbance of each well at 490 nm with a Victor3 microplate reader (Perkin Elmer; Waltham, Mass.). The 50% inhibitory concentration, IC50, was determined by fitting data to the following equation (Andrew MacKay, J., et al. Nat. Mater. 2009, 8, 993-999):
[formula] where V is viability of cells, Ctreatment is drug concentration, and p is slope of the dose response curve. This IC50 value is used to evaluate the potency of the conjugates.
The in vitro cytotoxicity of Zipp-PTX was measured by looking at the cell viability over a range of concentrations as a function of time. […]

CC(=O)O[C@H]1C(=O)[C@@]2(C)[C@H]([C@H](OC(=O)c3ccccc3)[C@]3(O)C[C@H](OC(=O)[C@H](O)[C@@H](NC(=O)c4ccccc4)c4ccccc4)C(C)=C1C3(C)C)[C@]1(OC(C)=O)CO[C@@H]1C[C@@H]2O [free drug, Paclitaxel]
IC50: ~2 nM
